Results as given in ChEMBL document CHEMBL4680094, “Insights of a Lead Optimization Study and Biological Evaluation of Novel 4-Hydroxytamoxifen Analogs as Estrogen-Related Receptor γ (ERRγ) Inverse Agonists” (J Med Chem, 2016).

Assays:
[1] = biological target: T1, Estrogen-related receptor gamma (Homo sapiens, UniProt P62508)
T1 sequence (P62508 whole entry): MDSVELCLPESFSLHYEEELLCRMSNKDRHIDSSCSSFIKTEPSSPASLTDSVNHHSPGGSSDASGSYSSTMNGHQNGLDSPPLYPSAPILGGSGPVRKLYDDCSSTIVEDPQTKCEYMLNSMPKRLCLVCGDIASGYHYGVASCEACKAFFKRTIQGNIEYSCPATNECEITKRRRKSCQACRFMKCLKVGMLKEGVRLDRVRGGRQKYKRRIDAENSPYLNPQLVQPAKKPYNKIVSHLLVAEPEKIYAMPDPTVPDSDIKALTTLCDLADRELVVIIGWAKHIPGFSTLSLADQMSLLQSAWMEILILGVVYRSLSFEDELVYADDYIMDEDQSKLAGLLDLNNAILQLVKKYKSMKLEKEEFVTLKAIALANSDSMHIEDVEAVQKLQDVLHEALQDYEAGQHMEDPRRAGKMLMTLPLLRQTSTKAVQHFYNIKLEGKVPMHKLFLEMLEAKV

[2] = biological target: T2, Steroid hormone receptor ERR1 (Homo sapiens, UniProt P11474); test: Binding affinity to GST-tagged ERRalpha LBD (unknown origin) using fluorescein PGC1alpha as coactivator incubated for 1 hr by LanthaScreen TR-FRET co-regulator assay
T2 sequence (P11474 whole entry): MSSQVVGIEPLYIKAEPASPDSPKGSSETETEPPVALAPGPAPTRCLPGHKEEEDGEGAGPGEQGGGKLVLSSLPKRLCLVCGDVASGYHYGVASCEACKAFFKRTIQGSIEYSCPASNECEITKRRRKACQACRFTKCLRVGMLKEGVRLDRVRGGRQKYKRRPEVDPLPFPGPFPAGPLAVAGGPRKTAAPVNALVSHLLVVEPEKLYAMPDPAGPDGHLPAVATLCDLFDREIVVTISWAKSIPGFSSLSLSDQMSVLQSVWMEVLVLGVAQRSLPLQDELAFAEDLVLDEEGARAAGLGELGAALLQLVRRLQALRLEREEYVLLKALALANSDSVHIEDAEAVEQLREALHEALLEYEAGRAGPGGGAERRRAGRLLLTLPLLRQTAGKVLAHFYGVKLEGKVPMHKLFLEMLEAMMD

[3] = biological target: T3, Steroid hormone receptor ERR2 (Homo sapiens, UniProt O95718); test: Binding affinity to GST-tagged ERRbeta LBD (unknown origin) using fluorescein PGC1alpha as coactivator incubated for 1 hr by LanthaScreen TR-FRET co-regulator assay
T3 sequence (O95718 whole entry): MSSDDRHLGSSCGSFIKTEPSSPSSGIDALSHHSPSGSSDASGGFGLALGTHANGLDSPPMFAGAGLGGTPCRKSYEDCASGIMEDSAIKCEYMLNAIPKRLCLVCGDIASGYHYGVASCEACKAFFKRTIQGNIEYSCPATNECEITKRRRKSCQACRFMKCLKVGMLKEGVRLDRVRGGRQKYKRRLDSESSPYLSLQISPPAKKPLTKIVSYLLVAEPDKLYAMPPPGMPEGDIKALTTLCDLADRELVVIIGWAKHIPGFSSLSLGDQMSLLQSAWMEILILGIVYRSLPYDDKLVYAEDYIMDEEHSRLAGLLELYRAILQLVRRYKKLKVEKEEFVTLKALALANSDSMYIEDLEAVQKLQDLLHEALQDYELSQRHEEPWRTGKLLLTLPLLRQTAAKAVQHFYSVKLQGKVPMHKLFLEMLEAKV

Estrogen receptor = biological target: T4, Estrogen receptor (Homo sapiens, UniProt P03372); test: Binding affinity to GST-tagged ERalpha LBD (unknown origin) using fluorescein PGC1alpha as coactivator incubated for 1 hr by LanthaScreen TR-FRET co-regulator assay
T4 sequence (P03372 whole entry): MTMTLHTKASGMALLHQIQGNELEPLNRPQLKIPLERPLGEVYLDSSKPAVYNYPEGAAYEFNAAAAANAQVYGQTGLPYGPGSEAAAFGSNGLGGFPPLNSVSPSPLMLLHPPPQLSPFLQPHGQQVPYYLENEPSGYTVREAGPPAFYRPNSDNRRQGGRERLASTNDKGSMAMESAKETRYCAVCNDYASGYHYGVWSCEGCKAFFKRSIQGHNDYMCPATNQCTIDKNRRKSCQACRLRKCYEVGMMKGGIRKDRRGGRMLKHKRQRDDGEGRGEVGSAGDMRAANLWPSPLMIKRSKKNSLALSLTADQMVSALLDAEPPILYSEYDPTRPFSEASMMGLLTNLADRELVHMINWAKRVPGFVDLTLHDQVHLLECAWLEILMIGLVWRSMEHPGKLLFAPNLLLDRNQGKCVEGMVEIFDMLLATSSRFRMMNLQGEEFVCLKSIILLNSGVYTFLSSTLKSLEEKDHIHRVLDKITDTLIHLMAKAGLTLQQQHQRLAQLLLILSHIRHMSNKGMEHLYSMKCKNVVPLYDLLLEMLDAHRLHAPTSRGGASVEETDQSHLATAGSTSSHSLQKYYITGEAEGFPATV

SMILES	IC50 [1] [nM]	IC50 [2] [nM]	IC50 [3] [nM]	IC50 (Estrogen receptor) [nM]
CN1CCN(CCOc2ccc(/C(=C(/CCCO)c3ccccc3)c3ccc(O)cc3)cc2)CC1	2200	–	–	–
Cc1ccc(/C(=C(\CCCO)c2ccccc2)c2ccc3oc(CCN4CCNCC4)cc3c2)cc1	2130	–	–	–
OCCC/C(=C(\c1ccc(O)cc1)c1ccc2oc(CCN3CCNCC3)cc2c1)c1ccccc1	894	–	–	–
OCCC/C(=C(\c1ccc(O)cc1)c1ccc(OCCN2CCC3(CCNC3)C2)cc1)c1ccccc1 (stereo not given)	326	> 10000	> 10000	5600
OCCC/C(=C(\c1ccc(O)cc1)c1ccc(OCCN2CC3CC3C2)cc1)c1ccccc1 (stereo not given)	–	> 10000	–	–
CN1CCN(Cc2ccc(/C(=C(/CCCO)c3ccccc3)c3ccc([N+](=O)[O-])cc3)cc2)CC1	> 10000	–	–	–
OCCC/C(=C(\c1ccc(O)cc1)c1ccc(OCCN2C[C@H]3CNC[C@H]3C2)cc1)c1ccccc1	165	> 10000	> 10000	407
OCCC/C(=C(\c1ccc(O)cc1)c1ccc(OCCN2C[C@H]3C[C@H]3[C@H]2CO)cc1)c1ccccc1	–	> 10000	–	–
OCCC/C(=C(\c1ccc(O)cc1)c1ccc2oc(CCN3CCCCC3)cc2c1)c1ccccc1	268	> 10000	> 10000	660
OCCC/C(=C(\c1ccc(O)cc1)c1ccc(OCCN2CC2)cc1)c1ccccc1	70	> 10000	3720	–
OCCC/C(=C(\c1ccc(O)cc1)c1ccc(N2CCOCC2)cc1)c1ccccc1	2230	–	–	–
CC(C)(C)OC(=O)N1CCC(n2cc(/C(=C(/CCCO)c3ccccc3)c3ccc(O)cc3)cn2)CC1	> 10000	–	–	–
OCCC/C(=C(\c1ccc(O)cc1)c1ccc2c(c1)CCN2CCN1CCCC1)c1ccccc1	8020	–	–	–
CN1CCC[C@@H]1CCOc1ccc(/C(=C(/CCCO)c2ccccc2)c2ccc(O)cc2)cc1	–	> 10000	> 10000	784
OCCC/C(=C(\c1ccc(O)cc1)c1ccc(OCCN2CCC[C@@H]2CO)cc1)c1ccccc1	–	> 10000	> 10000	–
O=C(CN1CCCCC1)Nc1ccc(/C(=C(/CCCO)c2ccccc2)c2ccc(O)cc2)cc1	2780	–	–	–
CN1C[C@@H]1CCCOc1ccc(/C(=C(/CCCO)c2ccccc2)c2ccc(Br)cc2)cc1 (stereo not given in full)	1660	–	–	–
C[Si](C)(CN1C[C@H]2CNC[C@H]2C1)c1ccc(/C(=C(/CCCO)c2ccccc2)c2ccc(O)cc2)cc1	460	–	–	–

SMILES	IC50 [1] [nM]	IC50 [2] [nM]	IC50 [3] [nM]	IC50 (Estrogen receptor) [nM]
CN1C[C@H]1CCCOc1ccc(/C(=C(/CCCO)c2ccccc2)c2ccc(O)cc2)cc1 (stereo not given in full)	784	–	–	–
OCCC/C(=C(\c1ccc(O)cc1)c1ccc(NCCN2CCCCC2)cc1)c1ccccc1	1550	–	–	–
CN(C)CCn1cc(-c2ccc(/C(=C(/CCCO)c3ccccc3)c3ccc(O)cc3)cc2)nn1	6300	–	–	–
C[Si](C)(CN1CCCC1)c1ccc(/C(=C(/CCCO)c2ccccc2)c2ccc(O)cc2)cc1	813	> 10000	> 10000	> 10000
O=C(Nc1ccc(/C(=C(/CCCO)c2ccccc2)c2ccc(O)cc2)cc1)C1CCCN1 (stereo not given)	> 10000	–	–	–
OCCC/C(=C(\c1ccc(Br)cc1)c1ccc(OCCN2CC2)cc1)c1ccccc1	1520	–	–	–
O=[N+]([O-])c1ccc(/C(=C(\CCCO)c2ccccc2)c2ccc(N3CCC4(CCNC4)C3)cc2)cc1 (stereo not given)	8230	–	–	–
O=C(CN1C[C@H]2CNC[C@H]2C1)Nc1ccc(/C(=C(/CCCO)c2ccccc2)c2ccc(O)cc2)cc1	7420	–	–	–
CN1CCC[C@H]1CCOc1ccc(/C(=C(/CCCO)c2ccccc2)c2ccc(O)cc2)cc1	–	> 10000	8590	724
OCCC/C(=C(\c1ccc(O)cc1)c1ccc(OCCN2CCCC2)cc1)c1ccccc1	–	> 10000	> 10000	649
C[Si](C)(CN1CCCCC1)c1ccc(/C(=C(/CCCO)c2ccccc2)c2ccc(O)cc2)cc1	248	> 10000	> 10000	4360
CN1C[C@@H]1CCCOc1ccc(/C(=C(/CCCO)c2ccccc2)c2ccc(O)cc2)cc1 (stereo not given in full)	1090	–	–	–
OCCC/C(=C(\c1ccc(O)cc1)c1ccc(OCCN2CCNCC2)cc1)c1ccccc1	1040	–	–	–
CN1CCN(Cc2ccc(/C(=C(/CCCO)c3ccccc3)c3ccc(O)cc3)cc2)CC1	2340	–	–	–
OCCC/C(=C(\c1ccc(Br)cc1)c1ccc(CN2CCCCC2)cc1)c1ccccc1	2300	–	–	–
CN1CCN(C[Si](C)(C)c2ccc(/C(=C(/CCCO)c3ccccc3)c3ccc(O)cc3)cc2)CC1	1260	–	–	–
OCCC/C(=C(\c1ccc(O)cc1)c1ccc2c(ccn2CCN2CCCCC2)c1)c1ccccc1	3610	–	–	–
C[Si](C)(CN1CCNCC1)c1ccc(/C(=C(/CCCO)c2ccccc2)c2ccc(O)cc2)cc1	1280	–	–	–
